pEC50, pIC50: −log10 of the molar value. In brackets after ≈: the same amount, converted by molar mass.
What was measured:
in vivo [1] = conditions: Swiss outbred, mouse, po, 10 mg/kg
Mus musculus [2] = test: Time plasma concentration remained above 1 uM in Swiss outbred mouse plasma at 2 mg/kg, po; format: ADME, organism-based; parameters: dose 2 mg/kg, route oral; conditions: in vivo
[3] = Terminal elimination half life in Swiss outbred mouse at 10 mg/kg, po; format: ADME, organism-based; parameters: dose 10 mg/kg, route oral; conditions: in vivo, read-out: beta t1/2 (converted)
in vivo [4] = conditions: Sprague-Dawley, rat, po, 2 mg/kg
[5] = Plasma protein binding in Swiss outbred mouse by ultracentrifugation; conditions: read-out: PPB (converted)
[6] = Clearance in Sprague-Dawley rat at 1 mg/kg, iv; format: ADME, organism-based; parameters: dose 1 mg/kg, route intravenous; conditions: in vivo
[7] = Oral bioavailability in Sprague-Dawley rat at 21.2 mg/kg; format: ADME, organism-based; conditions: in vivo
[8] = AUC (0 to infinity) in Swiss outbred mouse plasma at 2 mg/kg, po; format: ADME, organism-based; parameters: time infinity, dose 2 mg/kg, route oral
[9] = Cmax in Swiss outbred mouse at 0.4 mg/kg, po; format: ADME, organism-based; parameters: dose 0.4 mg/kg, route oral; conditions: in vivo
Plasma = test: Plasma protein binding in human by chromatographic method; format: ADME, cell-free
in vivo [10] = conditions: NOD-SCID IL-2Rgamma-null, mouse, po, 5.7 mg/kg
Plasmodium falciparum [11] = test: Antimalarial activity against atovoquone-resistant Plasmodium falciparum TM90C2B by [3H]hypoxanthine incorporation assay in presence of human serum; format: functional, organism-based
Plasmodium falciparum [12] = test: Antimalarial activity against chloroquine and pyrimethamine-resistant Plasmodium falciparum K1 by [3H]hypoxanthine incorporation assay in presence of human serum; format: functional, organism-based
in vivo [13] = conditions: Sprague-Dawley, rat, po, 21.2 mg/kg
Plasmodium falciparum [14] = test: Antimalarial activity against Plasmodium falciparum 3D7 by [3H]hypoxanthine incorporation assay in presence of human serum; format: functional, organism-based
[15] = Cmax in human RBC engrafted NOD-SCID IL-2Rgamma-null mouse infected with Plasmodium falciparum 3D7 0087/N9 at 5.7 mg/kg, po; format: ADME, organism-based; parameters: dose 5.7 mg/kg, route oral; conditions: in vivo
in vivo [16] = conditions: NOD-SCID IL-2Rgamma-null, mouse, po, 5.7 mg/kg; remark: listed apart in the source
Mus musculus [17] = test: Time plasma concentration remained above 1 uM in Swiss outbred mouse plasma at 50 mg/kg, po; format: ADME, organism-based; parameters: dose 50 mg/kg, route oral; conditions: in vivo
[18] = Cmax in Swiss outbred mouse at 2 mg/kg, po; format: ADME, organism-based; parameters: dose 2 mg/kg, route oral; conditions: in vivo
[19] = Terminal elimination half life in Sprague-Dawley rat at 1 mg/kg, iv; format: ADME, organism-based; parameters: dose 1 mg/kg, route intravenous; conditions: in vivo, read-out: beta t1/2 (converted)
[20] = Volume of distribution in Sprague-Dawley rat at 1 mg/kg, iv; format: ADME, organism-based; parameters: dose 1 mg/kg, route intravenous; conditions: in vivo
[21] = Aqueous solubility of the compound at pH 6.5; format: physicochemical
Plasmodium falciparum [22] = test: Antimalarial activity against […] Plasmodium falciparum TM90C2A by [3H]hypoxanthine incorporation assay in presence of human serum; format: functional, organism-based
[23] = Cmax in Sprague-Dawley rat at 21.2 mg/kg, po; format: ADME, organism-based; parameters: dose 21.2 mg/kg, route oral; conditions: in vivo
Mus musculus [24] = test: Time plasma concentration remained above 1 uM in Swiss outbred mouse plasma at 10 mg/kg, po; format: ADME, organism-based; parameters: dose 10 mg/kg, route oral; conditions: in vivo
Plasmodium falciparum [25] = test: Antimalarial activity against Plasmodium falciparum 3D7 0087/N9 infected in human RBC engrafted NOD-SCID IL-2Rgamma-null mouse assessed as reduction in parasitemia administered orally 3 days post infection qd for 4 days measured 24 hrs after final dose by FACS analysis; format: functional; conditions: 3D7 0087/N9, po
[26] = Lipophilicity, log D of the compound at pH 7.4; format: physicochemical; conditions: buffer
[27] = Cmax in Sprague-Dawley rat at 2 mg/kg, po; format: ADME, organism-based; parameters: dose 2 mg/kg, route oral; conditions: in vivo
[28] = AUC (0 to infinity) in Swiss outbred mouse plasma at 0.4 mg/kg, po; format: ADME, organism-based; parameters: time infinity, dose 0.4 mg/kg, route oral
[29] = biological target: Dihydroorotate dehydrogenase (quinone), mitochondrial (Homo sapiens, UniProt Q02127)
Sequence of Dihydroorotate dehydrogenase (quinone), mitochondrial (Q02127 whole entry): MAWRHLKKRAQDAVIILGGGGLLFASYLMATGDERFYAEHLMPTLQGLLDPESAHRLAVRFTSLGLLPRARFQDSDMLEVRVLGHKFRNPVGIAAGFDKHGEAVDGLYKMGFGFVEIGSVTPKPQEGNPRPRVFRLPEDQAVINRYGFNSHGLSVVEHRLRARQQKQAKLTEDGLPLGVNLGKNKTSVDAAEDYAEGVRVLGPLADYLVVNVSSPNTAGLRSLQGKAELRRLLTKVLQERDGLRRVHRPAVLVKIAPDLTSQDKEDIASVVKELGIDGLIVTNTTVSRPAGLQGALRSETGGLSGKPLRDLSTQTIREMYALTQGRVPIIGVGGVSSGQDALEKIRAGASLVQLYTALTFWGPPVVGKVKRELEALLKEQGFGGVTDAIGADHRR
Description: Inhibition of human C-terminal hexa-His tagged DHODH expressed in Escherichia coli by DCIP reduction assay

L1210 = test: Cytotoxicity against mouse L1210 cells; format: cell-based
Liver = test: Intrinsic clearance in mouse liver microsomes; format: ADME, Microsome
in vivo [30] = conditions: Swiss outbred, mouse, po, 2 mg/kg
[31] = Terminal elimination half life in Swiss outbred mouse at 2 mg/kg, po; format: ADME, organism-based; parameters: dose 2 mg/kg, route oral; conditions: in vivo, read-out: beta t1/2 (converted)
in vivo [32] = conditions: Swiss outbred, mouse, po, 0.4 mg/kg
[33] = Inhibition of Plasmodium berghei C-terminal hexa-His tagged DHODH expressed in Escherichia coli by DCIP reduction assay
[34] = Volume of distribution in Sprague-Dawley rat at 4.5 mg/kg, iv; format: ADME, organism-based; parameters: dose 4.5 mg/kg, route intravenous; conditions: in vivo
[35] = AUC (0 to infinity) in Sprague-Dawley rat at 2 mg/kg, po; format: ADME, organism-based; parameters: time infinity, dose 2 mg/kg, route oral; conditions: plasma
[36] = Clearance in Sprague-Dawley rat at 4.5 mg/kg, iv; format: ADME, organism-based; parameters: dose 4.5 mg/kg, route intravenous; conditions: in vivo
[37] = AUC (0 to infinity) in Swiss outbred mouse plasma at 10 mg/kg, po; format: ADME, organism-based; parameters: time infinity, dose 10 mg/kg, route oral
Plasmodium falciparum [38] = test: Antimalarial activity against Plasmodium falciparum 3D7 by [3H]hypoxanthine incorporation assay in presence of albumax; format: functional, organism-based
Plasmodium falciparum [39] = test: Antimalarial activity against chloroquine-resistant Plasmodium falciparum Dd2 by [3H]hypoxanthine incorporation assay in presence of human serum; format: functional, organism-based
Mus musculus [40] = test: Time plasma concentration remained above 1 uM in Swiss outbred mouse plasma at 0.4 mg/kg, po; format: ADME, organism-based; parameters: dose 0.4 mg/kg, route oral; conditions: in vivo
Plasmodium falciparum [41] = test: Antimalarial activity against drug-sensitive Plasmodium falciparum HB3 by [3H]hypoxanthine incorporation assay in presence of human serum; format: functional, organism-based
in vivo [42] = conditions: Swiss outbred, mouse, po, 50 mg/kg
[43] = Terminal elimination half life in Sprague-Dawley rat at 2 mg/kg, po; format: ADME, organism-based; parameters: dose 2 mg/kg, route oral; conditions: in vivo, read-out: beta t1/2 (converted)
Liver microsomes = test: Intrinsic clearance in human liver microsomes; format: ADME, Microsome
[44] = Cmax in Swiss outbred mouse at 50 mg/kg, po; format: ADME, organism-based; parameters: dose 50 mg/kg, route oral; conditions: in vivo
[45] = AUC (0 to infinity) in Sprague-Dawley rat at 21.2 mg/kg, po; format: ADME, organism-based; parameters: time infinity, dose 21.2 mg/kg, route oral; conditions: plasma
[46] = Cmax in human RBC engrafted NOD-SCID IL-2Rgamma-null mouse at 5.7 mg/kg, po; format: ADME, organism-based; parameters: dose 5.7 mg/kg, route oral; conditions: in vivo
[47] = Terminal elimination half life in Swiss outbred mouse at 0.4 mg/kg, po; format: ADME, organism-based; parameters: dose 0.4 mg/kg, route oral; conditions: in vivo, read-out: beta t1/2 (converted)
Mus musculus [48] = test: AUC (0 to 10 hrs) in human RBC engrafted NOD-SCID IL-2Rgamma-null mouse infected with Plasmodium falciparum 3D7 0087/N9 at 5.7 mg/kg, po; format: ADME, organism-based, Plasma; parameters: time < 10 hr, dose 5.7 mg/kg, route oral; conditions: in vivo
[49] = Plasma protein binding in Sprague-Dawley rat at 2 to 21.2 mg/kg, po; format: ADME, organism-based; parameters: dose 2-21.2 mg/kg, route oral; conditions: read-out: PPB (converted)
[50] = Terminal elimination half life in Sprague-Dawley rat at 21.2 mg/kg, po; format: ADME, organism-based; parameters: dose 21.2 mg/kg, route oral; conditions: in vivo, read-out: beta t1/2 (converted)
Plasmodium falciparum [51] = test: Antimalarial activity against drug-sensitive Plasmodium falciparum D6 by [3H]hypoxanthine incorporation assay in presence of human serum; format: functional, organism-based

## Cc1cc(Nc2ccc(C(F)(F)F)cc2)n2nc(C(C)(F)F)nc2n1
In vivo [1]
  Tmax: 4 h
Mus musculus [2]
  Time: 6 h
[3]
  half-life: 1.6 h
In vivo [4]
  Tmax: 1 h
[5]
  fraction unbound: 0.026
[6]
  clearance: 23.2 mL/min/kg
[7]
  bioavailability: > 100%
[8]
  AUC(0-inf): 9.48 µM·h
[9]
  Cmax: 0.2 µM
Plasma
  PPB: 90.4%
In vivo [10]
  Tmax: 1.7 h
Plasmodium falciparum [11]
  pEC50: 8.34
Plasmodium falciparum [12]
  pEC50: 7.80
In vivo [13]
  Tmax: 3.25 h
Plasmodium falciparum [14]
  pEC50: 8.00
[15]
  Cmax: 6.3 µM
In vivo [16]
  Tmax: 2.7 h
Mus musculus [17]
  Time: 14 h
[18]
  Cmax: 1.85 µM
[19]
  half-life: 6.1 h
[20]
  Vd: 3.3 L/kg
[21]
  solubility: 70 µM (≈ 25 µg/mL)
Plasmodium falciparum [22]
  pEC50: 8.10
[23]
  Cmax: 11.4 µM
Mus musculus [24]
  Time: 14 h
Plasmodium falciparum [25]
  ED50: 9.6 mg/kg
  ED90: 26 mg/kg
[26]
  logD: 3.3
[27]
  Cmax: 0.9 µM
[28]
  AUC(0-inf): 0.667 µM·h
[29]
  pIC50: < 4.00
L1210
  pEC50: < 4.30
Liver
  Intrinsic clearance: 10.1 µL/min/mg
In vivo [30]
  Tmax: 1 h
[31]
  half-life: 1.9 h
In vivo [32]
  Tmax: 0.5 h
[33]
  pIC50: 5.62
[34]
  Vd: 2.9 L/kg
[35]
  AUC(0-inf): 3.88 µM·h
[36]
  clearance: 12.6 mL/min/kg
[37]
  AUC(0-inf): 70.1 µM·h
Plasmodium falciparum [38]
  pEC50: 8.21
Plasmodium falciparum [39]
  pEC50: 7.89
Mus musculus [40]
  Time: 0 h
Plasmodium falciparum [41]
  pEC50: 8.10
In vivo [42]
  Tmax: 2 h
[43]
  half-life: 6 h
Liver microsomes
  Intrinsic clearance: < 5 µL/min/mg
[44]
  Cmax: 57 µM
[45]
  AUC(0-inf): 342 µM·h
[46]
  Cmax: 6.3 µM
[47]
  half-life: 2.1 h
Mus musculus [48]
  AUC: 2740 µM·min
[49]
  fraction unbound: 0.058
[50]
  half-life: 17 h
Plasmodium falciparum [51]
  pEC50: 7.92

From ChEMBL document CHEMBL1955725, “Structure-guided lead optimization of triazolopyrimidine-ring substituents identifies potent Plasmodium falciparum dihydroorotate dehydrogenase inhibitors with clinical candidate potential” (J Med Chem, 2011)
